Assay results: US11149023B2, “Substituted triazole derivatives and uses thereof” (Bayer Pharma Aktiengesellschaft, priority 2017, dated 2021)

Legend:
human V2 receptor = human V2 receptor (Homo sapiens (Human), UniProt P30518); assay: Cellular in vitro assay for determining vasopressin receptor activity (V2, CRE-luciferase); format: cell-based; conditions: CHO cell line transfected with human V2 receptor; [Arg8]-vasopressin at EC50 concentration; read-out: IC50 hV2
human V1a receptor = human V1a receptor (Homo sapiens (Human), UniProt P37288); assay: Cellular in vitro assay for determining vasopressin receptor activity (V1a, aequorin luminescence); format: cell-based; conditions: for IC50: CHO cell line transfected with human V1a receptor, [Arg8]-vasopressin at EC50 concentration, read-out: IC50 hV1a; for ratio IC50 hV2/hV1a: selectivity, IC50 hV2 divided by IC50 hV1a
Chain of human V1a receptor (P37288 whole entry): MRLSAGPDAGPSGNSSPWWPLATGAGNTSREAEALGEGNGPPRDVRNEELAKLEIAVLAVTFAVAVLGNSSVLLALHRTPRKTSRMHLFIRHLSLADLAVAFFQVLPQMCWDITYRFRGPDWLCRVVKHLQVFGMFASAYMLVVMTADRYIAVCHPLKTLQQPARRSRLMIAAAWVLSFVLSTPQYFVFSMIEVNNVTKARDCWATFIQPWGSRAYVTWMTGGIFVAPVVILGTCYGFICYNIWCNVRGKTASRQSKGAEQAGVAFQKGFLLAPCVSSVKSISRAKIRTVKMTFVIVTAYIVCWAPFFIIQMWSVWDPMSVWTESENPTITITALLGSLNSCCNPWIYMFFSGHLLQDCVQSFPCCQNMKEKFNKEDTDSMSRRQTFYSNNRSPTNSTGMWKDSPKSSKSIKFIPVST

Chain of human V2 receptor (P30518 whole entry): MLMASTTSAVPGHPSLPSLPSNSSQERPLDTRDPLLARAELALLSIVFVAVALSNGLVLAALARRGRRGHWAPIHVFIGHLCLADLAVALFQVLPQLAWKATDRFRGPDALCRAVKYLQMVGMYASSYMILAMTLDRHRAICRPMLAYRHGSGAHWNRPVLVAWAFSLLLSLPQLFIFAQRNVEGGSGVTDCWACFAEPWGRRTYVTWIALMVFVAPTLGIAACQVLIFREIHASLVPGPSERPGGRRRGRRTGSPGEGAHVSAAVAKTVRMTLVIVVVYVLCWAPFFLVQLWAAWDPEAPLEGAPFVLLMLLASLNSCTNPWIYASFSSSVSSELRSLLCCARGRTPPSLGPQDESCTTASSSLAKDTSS

SMILES | IC50 (human V2 receptor) [nM] | IC50 (human V1a receptor) [nM] | ratio IC50 hV2/hV1a (human V1a receptor)
O=C1NCCC1C(=O)NC(Cn1c(-c2ccc(Cl)cc2)nn(Cc2ncn(-c3ncccc3Cl)n2)c1=O)C(F)(F)F (stereo not drawn) [Example 51, N-{3-[3-(4-Chlorophenyl)-1-{[1-(3-chloropyridin-2-yl)-1H-1,2,4-triazol-3-yl]methyl}-5-oxo-1,5-dihydro-4H-1,2,4-triazol-4-yl]-1,1,1-trifluoropropan-2-yl}-2-oxopyrrolidine-3-carboxamide] | 167 | 2.9 | 57.6
O=C(NC(Cn1c(-c2ccc(Cl)cc2)nn(Cc2ncn(-c3ncccc3Cl)n2)c1=O)C(F)(F)F)C1CC(F)(F)CN1 (stereo not drawn) [Example 53, N-{3-[3-(4-Chlorophenyl)-1-{[1-(3-chloropyridin-2-yl)-1H-1,2,4-triazol-3-yl]methyl}-5-oxo-1,5-dihydro-4H-1,2,4-triazol-4-yl]-1,1,1-trifluoropropan-2-yl}-4,4-difluoro-prolinamide] | 38 | 1.6 | 23.8
CC(C)(C)OC(=O)N1CC(F)(F)C1C(=O)NC(Cn1c(-c2ccc(Cl)cc2)nn(Cc2ncn(-c3ncccc3Cl)n2)c1=O)C(F)(F)F (stereo not drawn) [Example 54, tert-Butyl 2-({3-[3-(4-chlorophenyl)-1-{[1-(3-chloropyridin-2-yl)-1H-1,2,4-triazol-3-yl]methyl}-5-oxo-1,5-dihydro-4H-1,2,4-triazol-4-yl]-1,1,1-trifluoropropan-2-yl}carbamoyl)-3,3-difluoro-azetidine-1-carboxylate] | 165 | 3.9 | 42.3
O=C(NC(Cn1c(-c2ccc(Cl)cc2)nn(Cc2ncn(-c3ncccc3Cl)n2)c1=O)C(F)(F)F)C1NCC1(F)F (stereo not drawn) [Example 55, N-{3-[3-(4-Chlorophenyl)-1-{[1-(3-chloropyridin-2-yl)-1H-1,2,4-triazol-3-yl]methyl}-5-oxo-1,5-dihydro-4H-1,2,4-triazol-4-yl]-1,1,1-trifluoropropan-2-yl}-3,3-difluoroazetidine-2-carboxamide] | 106 | 1.95 | 54.4
CC(C)(C)OC(=O)N1CCC1C(=O)NC(Cn1c(-c2ccc(Cl)cc2)nn(Cc2ncn(-c3ncccc3Cl)n2)c1=O)C(F)(F)F (stereo not drawn) [Example 56, tert-Butyl 2-({3-[3-(4-chlorophenyl)-1-{[1-(3-chloropyridin-2-yl)-1H-1,2,4-triazol-3-yl]methyl}-5-oxo-1,5-dihydro-4H-1,2,4-triazol-4-yl]-1,1,1-trifluoropropan-2-yl}carbamoyl)azetidine-1-carboxylate] | 1030 | 8.1 | 126.8
O=C(NC(Cn1c(-c2ccc(Cl)cc2)nn(Cc2ncn(-c3ncccc3Cl)n2)c1=O)C(F)(F)F)C1CCN1 (stereo not drawn) [Example 57, N-{3-[3-(4-Chlorophenyl)-1-{[1-(3-chloropyridin-2-yl)-1H-1,2,4-triazol-3-yl]methyl}-5-oxo-1,5-dihydro-4H-1,2,4-triazol-4-yl]-1,1,1-trifluoropropan-2-yl}azetidine-2-carboxamide] | 1980 | 31.5 | 62.8
O=C(NC(Cn1c(-c2ccc(Cl)cc2)nn(Cc2ncn(-c3ncccc3C(F)(F)F)n2)c1=O)C(F)(F)F)C1CC1(F)F (stereo not drawn) [Example 66, N-{3-[3-(4-Chlorophenyl)-5-oxo-1-({1-[3-(trifluoromethyl)pyridin-2-yl]-1H-1,2,4-triazol-3-yl}methyl)-1,5-dihydro-4H-1,2,4-triazol-4-yl]-1,1,1-trifluoropropan-2-yl}-2,2-difluorocyclopropane-1-carboxamide] | 245 | 5.4 | 45.4
Cl.O=C(NC(Cn1c(-c2ccc(Cl)cc2)nn(Cc2ncn(-c3ncccc3C(F)(F)F)n2)c1=O)C(F)(F)F)C1NCC1(F)F (stereo not drawn) [Example 69, N-{3-[3-(4-Chlorophenyl)-5-oxo-1-({1-[3-(trifluoromethyl)pyridin-2-yl]-1H-1,2,4-triazol-3-yl}methyl)-1,5-dihydro-4H-1,2,4-triazol-4-yl]-1,1,1-trifluoropropan-2-yl}-3,3-difluoroazetidine-2-carboxamide] | 101 | 1.95 | 51.8
Cl.O=C(NC(Cn1c(-c2ccc(Cl)cc2)nn(Cc2ncn(-c3ncccc3C(F)(F)F)n2)c1=O)C(F)(F)F)[C@@H]1C[C@@H](F)CN1 (stereo partly drawn) [Example 70, N-{3-[3-(4-Chlorophenyl)-5-oxo-1-({1-[3-(trifluoromethyl)pyridin-2-yl]-1H-1,2,4-triazol-3-yl}methyl)-1,5-dihydro-4H-1,2,4-triazol-4-yl]-1,1,1-trifluoropropan-2-yl}-4-fluoro-L-prolinamide] | 445 | 6.35 | 70.1
Cl.O=C(NC(Cn1c(-c2ccc(Cl)cc2)nn(Cc2ncn(-c3ncccc3C(F)(F)F)n2)c1=O)C(F)(F)F)[C@@H]1C[C@H](F)CN1 (stereo partly drawn) [Example 71, N-{3-[3-(4-Chlorophenyl)-5-oxo-1-({1-[3-(trifluoromethyl)pyridin-2-yl]-1H-1,2,4-triazol-3-yl}methyl)-1,5-dihydro-4H-1,2,4-triazol-4-yl]-1,1,1-trifluoropropan-2-yl}-4-fluoro-L-prolinamide] | 275 | 4.9 | 56.1
